Activity calls are given as the source filed them. The calls are words filed in the database; no cut-off is given here.
Experiments:
[1] = test system: HLF; assay: Antiproliferative activity against human HLF cells incubated for 5 days by XTT assay; format: functional, cell-based; conditions: time 5.0 day
[2] = test system: HCT-15; assay: Antiproliferative activity against human HCT-15 cells; format: functional, cell-based
[3] = biological target: T1, Dual specificity protein kinase TTK (Homo sapiens) (UniProt P33981); assay: Displacement of tracer K9 from NanoLuc-fused MPS1 (unknown origin) expressed in HEK293T cells at 10 fold IC50 preincubated for 2 hrs followed by compound washout by NanoBRET assay; format: cell-based
T1 sequence (whole entry): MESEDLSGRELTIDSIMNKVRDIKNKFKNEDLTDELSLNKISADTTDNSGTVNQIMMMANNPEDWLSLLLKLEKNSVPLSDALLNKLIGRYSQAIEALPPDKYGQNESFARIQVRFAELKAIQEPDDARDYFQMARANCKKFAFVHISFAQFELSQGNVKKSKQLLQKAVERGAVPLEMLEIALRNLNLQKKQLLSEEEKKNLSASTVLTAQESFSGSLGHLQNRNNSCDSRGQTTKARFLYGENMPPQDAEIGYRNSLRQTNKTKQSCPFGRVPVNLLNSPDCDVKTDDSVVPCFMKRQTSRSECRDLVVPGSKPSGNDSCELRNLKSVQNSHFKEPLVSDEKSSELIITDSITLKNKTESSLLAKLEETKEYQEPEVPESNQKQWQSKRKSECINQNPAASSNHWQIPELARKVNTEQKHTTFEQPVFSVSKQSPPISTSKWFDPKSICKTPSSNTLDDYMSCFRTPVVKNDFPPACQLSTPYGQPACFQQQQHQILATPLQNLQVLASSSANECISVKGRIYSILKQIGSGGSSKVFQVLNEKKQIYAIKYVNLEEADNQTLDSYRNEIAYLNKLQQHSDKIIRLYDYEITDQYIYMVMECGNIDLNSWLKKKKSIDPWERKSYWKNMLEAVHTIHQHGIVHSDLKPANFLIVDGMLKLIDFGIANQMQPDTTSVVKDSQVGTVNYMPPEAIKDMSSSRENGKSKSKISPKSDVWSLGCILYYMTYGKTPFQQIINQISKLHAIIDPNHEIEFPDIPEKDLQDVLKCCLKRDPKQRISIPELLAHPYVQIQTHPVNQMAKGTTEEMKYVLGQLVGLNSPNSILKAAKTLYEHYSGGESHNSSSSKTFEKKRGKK

[4] = Microsomal stability in mouse liver microsomes assessed as half life at 100 uM pre-incubated for 5 mins with NADPH- regenerating system followed by liver microsomal addition and measured upto 120 mins by HPLC analysis; format: ADME, Microsome; conditions: time <=125 min
[5] = test system: HCT-116; assay: Induction of apoptosis in human HCT-116 cells assessed as down regulation of cyclin B1 expression measured after 3 days by Western blot analysis; format: functional, cell-based; conditions: time 3.0 day
[6] = test system: MDA-MB-468; assay: Cytotoxicity against human MDA-MB-468 cells assessed as reduction in cell viability incubated for 5 days by XTT assay; format: functional, cell-based; conditions: time 5.0 day
[7] = biological target: T2, Dual specificity protein kinase TTK (Homo sapiens, UniProt P33981); assay: Inhibition of recombinant human full length N-terminal GST-fused MPS1 (1 to 857 residues) using histone H3 as substrate measured after 4 hrs in presence of DTT by TR-FRET assay
T2 sequence (P33981 whole entry): T1 sequence (whole entry)

[8] = test system: Huh-7; assay: Antiproliferative activity against human Huh-7 cells incubated for 5 days by XTT assay; format: functional, cell-based; conditions: time 5.0 day
[9] = test system: SNU-387; assay: Induction of apoptosis in human SNU-387 cells assessed as increase in phospho-gammaH2A.X expression level at 200 nM measured upto 5 days by Western blot analysis; format: functional, cell-based; conditions: time day <=5
[10] = test system: Hep 3B2; assay: Antiproliferative activity against human Hep3B cells incubated for 5 days by XTT assay; format: functional, cell-based; conditions: time 5.0 day
[11] = test system: HT-29; assay: Antiproliferative activity against human HT-29 cells; format: functional, cell-based
[12] = biological target: T2, Dual specificity protein kinase TTK; assay: Inhibition of recombinant human full length N-terminal GST-fused MPS1 (1 to 857 residues) using histone H3 as substrate measured after 2 hrs in presence of DTT by TR-FRET assay
[13] = test system: SNU-387; assay: Synergistic antiproliferative activity against human SNU-387 cells at 200 nM measured after 5 days in presence of navitoclax by crystal violet staining based assay; format: functional, cell-based; conditions: time 5.0 day
[14] = test system: Huh-7; assay: Induction of apoptosis in human Huh-7 cells assessed as increase in p21 expression level at 200 nM measured upto 5 days by Western blot analysis; format: functional, cell-based; conditions: time day <=5
[15] = biological target: T1, Dual specificity protein kinase TTK (Homo sapiens); assay: Covalent inhibition of human full length N-terminal GST-fused MPS1 (1 to 857 residues) assessed as Kinact by TR-FRET assay
[16] = biological target: T3, Serine/threonine-protein kinase 17B (Homo sapiens) (UniProt O94768); conditions: dose 10.0 µM
T3 sequence (whole entry): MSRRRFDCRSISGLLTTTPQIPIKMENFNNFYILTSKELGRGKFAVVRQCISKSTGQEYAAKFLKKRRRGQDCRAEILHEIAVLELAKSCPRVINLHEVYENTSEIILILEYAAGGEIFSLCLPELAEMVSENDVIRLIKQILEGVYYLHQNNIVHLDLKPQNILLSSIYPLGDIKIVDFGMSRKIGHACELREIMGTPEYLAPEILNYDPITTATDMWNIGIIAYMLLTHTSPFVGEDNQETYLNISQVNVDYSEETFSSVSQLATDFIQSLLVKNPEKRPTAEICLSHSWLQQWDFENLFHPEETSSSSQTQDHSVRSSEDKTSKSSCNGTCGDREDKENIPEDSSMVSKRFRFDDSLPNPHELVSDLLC

[17] = test system: HuH-6; assay: Antiproliferative activity against human HuH-6 cells incubated for 5 days by XTT assay; format: functional, cell-based; conditions: time 5.0 day
[18] = biological target: T2, Dual specificity protein kinase TTK; assay: Inhibition of recombinant human full length N-terminal GST-fused MPS1 (1 to 857 residues) using histone H3 as substrate measured immediately in presence of DTT by TR-FRET assay
[19] = test system: KM12; assay: Antiproliferative activity against human KM12 cells; format: functional, cell-based
[20] = test system: Huh-7; assay: Induction of apoptosis in human Huh-7 cells assessed as increase in phospho-gammaH2A.X expression level at 200 nM measured upto 5 days by Western blot analysis; format: functional, cell-based; conditions: time day <=5
[21] = test system: Huh-7; assay: Induction of cell senescence in human Huh-7 cells at 200 uM measured up to 5 days by SA-beta-gal-staining based assay; format: functional; conditions: time day <=5
[22] = biological target: Fibroblast growth factor receptor 4 (Homo sapiens, UniProt P22455); assay: Inhibition of human recombinant FGFR4 expressed in Sf9 insect cells using poly[Glu:Tyr] 4:1 as substrate in presence of [33P]-ATP by radiometric hotspot kinetic assay
[23] = test system: SNU-387; assay: Induction of apoptosis in human SNU-387 cells assessed as increase in p21 expression level at 200 nM measured upto 5 days by Western blot analysis; format: functional, cell-based; conditions: time day <=5
[24] = Stability of compound in glutathione at pH 7.4 assessed as half life by HPLC analysis; format: physicochemical; conditions: glutathione solution, time 5 min
[25] = test system: MDA-MB-231; assay: Cytotoxicity against human MDA-MB-231cells assessed as reduction in cell viability incubated for 5 days by XTT assay; format: functional, cell-based; conditions: time 5.0 day
[26] = biological target: MAP kinase-activated protein kinase 3 (Homo sapiens, UniProt Q16644); assay: Inhibition of human recombinant MAPKAPK3 expressed in Sf9 insect cells using [KKLNRTLSVA] as substrate in presence of [33P]-ATP by radiometric hotspot kinetic assay
[27] = test system: HCT-116; assay: Induction of apoptosis in human HCT-116 cells assessed as upregulation of p21 expression measured after 3 days by Western blot analysis; format: functional, cell-based; conditions: time 3.0 day
[28] = test system: SNU-387; assay: Induction of cell senescence in human SNU-387 cells at 200 uM measured up to 5 days by SA-beta-gal-staining based assay; format: functional; conditions: time day <=5
[29] = test system: HCT-15; assay: Cytotoxicity against human HCT-15 cells assessed as reduction in cell viability incubated for 5 days by XTT assay; format: functional, cell-based; conditions: time 5.0 day
[30] = test system: Hep 3B2; assay: Induction of apoptosis in human Hep3B cells assessed as increase in p21 expression level at 200 nM measured upto 5 days by Western blot analysis; format: functional, cell-based; conditions: time day <=5

Chain of MAP kinase-activated protein kinase 3 (Q16644 whole entry): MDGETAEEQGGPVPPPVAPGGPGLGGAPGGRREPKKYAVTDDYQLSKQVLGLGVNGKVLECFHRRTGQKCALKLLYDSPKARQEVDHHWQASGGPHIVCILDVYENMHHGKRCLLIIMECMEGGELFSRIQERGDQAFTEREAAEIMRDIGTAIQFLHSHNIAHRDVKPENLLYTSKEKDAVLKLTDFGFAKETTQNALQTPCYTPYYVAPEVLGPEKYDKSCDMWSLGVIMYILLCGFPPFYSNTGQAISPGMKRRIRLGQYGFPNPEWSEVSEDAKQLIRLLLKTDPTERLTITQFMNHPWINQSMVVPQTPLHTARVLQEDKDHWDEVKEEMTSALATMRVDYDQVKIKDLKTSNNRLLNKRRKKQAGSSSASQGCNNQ
Chain of Fibroblast growth factor receptor 4 (P22455 whole entry): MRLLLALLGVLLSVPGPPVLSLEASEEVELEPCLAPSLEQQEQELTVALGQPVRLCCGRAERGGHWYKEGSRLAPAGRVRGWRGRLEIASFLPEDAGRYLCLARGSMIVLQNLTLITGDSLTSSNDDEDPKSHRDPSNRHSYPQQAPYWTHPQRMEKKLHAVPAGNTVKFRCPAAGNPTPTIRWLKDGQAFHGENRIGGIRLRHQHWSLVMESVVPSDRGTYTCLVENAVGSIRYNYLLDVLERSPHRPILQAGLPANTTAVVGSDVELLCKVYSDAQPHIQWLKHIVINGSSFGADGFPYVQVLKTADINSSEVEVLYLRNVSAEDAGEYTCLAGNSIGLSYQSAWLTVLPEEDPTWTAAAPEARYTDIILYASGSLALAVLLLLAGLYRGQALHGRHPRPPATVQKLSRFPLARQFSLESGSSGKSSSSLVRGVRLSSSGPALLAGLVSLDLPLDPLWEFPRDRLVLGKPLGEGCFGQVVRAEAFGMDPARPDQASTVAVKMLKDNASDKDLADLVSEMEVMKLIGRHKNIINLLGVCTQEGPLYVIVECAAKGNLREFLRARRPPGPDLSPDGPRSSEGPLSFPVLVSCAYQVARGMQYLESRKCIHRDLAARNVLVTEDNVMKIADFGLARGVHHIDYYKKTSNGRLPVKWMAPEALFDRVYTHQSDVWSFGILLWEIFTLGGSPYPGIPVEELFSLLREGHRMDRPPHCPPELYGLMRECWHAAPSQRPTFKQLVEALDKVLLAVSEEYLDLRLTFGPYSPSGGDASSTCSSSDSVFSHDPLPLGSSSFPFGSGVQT

In the case of C=CC(=O)Nc1cc(N2CCN(C)CC2)ccc1Nc1ncc2c(n1)-n1ccc(C(=O)Nc3c(CC)cccc3CC)c1CC2, the Activity [1] is reported as “Active”, the Activity [2] is reported as “Active” and the Activity [3] is reported as 50%. For the same molecule, the half-life at 100 µM [4] was 1 h, the Activity [5] was “Active” and the Activity [6] was “Active”. The IC50 [7] was 0.0138 µM, the Activity [8] was “Active” and the Activity [9] was “Active”. For the same molecule, the Activity [10] was “Active”, the Activity [11] was “Active” and the IC50 [12] was 0.02 µM. For the same molecule, the Activity [13] was “Active”, the Activity [14] was “Active” and the Kinact [15] was 0.000242 s⁻¹. The ΔTm [16] was 11.9 °C, the Activity [17] was “Active” and the IC50 [18] was 0.0402 µM. The Activity [19] was “Active”, the Activity [20] was “Active” and the Activity [21] was “Active”. The IC50 [22] was 2.75 µM, the Activity [23] was “Active” and the half-life at 100 µM [24] was 84.5 h. The Activity [25] was “Active”, the IC50 [26] was over 5 µM and the Activity [27] was “Active”. For the same molecule, the Activity [28] was “Active”, the Activity [29] was “Active” and the Activity [30] was “Active”.
